According to patent US9212167B2, “Mitochondrial targeted stimulators of apoptosis” (The Rockefeller University, priority 2011, dated 2015):

Key:
Format in all cases: cell-based
HeLa cells [1] = experiment: Alamar Blue cell viability, HeLa cells; conditions: ten-point dose response, up to 50 μM, FIG. 1
Experimental: (§1) The compound described above as Compound 15 was tested for its effect on the viability of cells using Alamar Blue staining. This reagent takes advantage of the conversion by healthy cells of a non-fluorescent molecule, resazurin, to the brightly red-fluorescent resorufin. The assay was performed in 384 well plate format, and the fluorescence (560 nm Ex/590 nm Em) was detected and quantified using a Perkin-Elmer Envision plate reader. Four samples were compared. Samples were the compound identified as 2PA in paragraph [0014] (i.e. just “A” without “L” or “B”), a dimer of 2PA (i.e. A-L-A, wherein L is C6H4):
(§2) PK11195 alone and Compound 15. Ten-point dose responses were performed in both HeLa and T98G cells to determine the concentration at which each compound was effective.

T98G cells = experiment: Alamar Blue cell viability, T98G cells; conditions: ten-point dose response, up to 50 μM, FIG. 2
Experimental: as §1, §2

HeLa cells [2] = experiment: Count of apoptotic HeLa cells with and without pan-caspase inhibitor ZVAD-FMK; conditions: 40 μM, 3 or 6 hours
Experimental: To verify the induction of apoptosis by Compound 15, HeLa cells were treated with 40 μM of the compound and incubated for 3 or 6 hours in the presence and absence of pan-caspase inhibitor ZVAD-FMK. Apoptotic cells were counted at the indicated times in each condition.

Compound | cell killing (percent survival as a function of concentration) (HeLa cells [1]) | cell killing (percent survival as a function of concentration) (T98G cells) | induction of apoptosis (apoptotic cells counted) (HeLa cells [2]; absence of ZVAD-FMK) | induction of apoptosis (apoptotic cells counted) with caspase inhibitor (HeLa cells [2]; presence of pan-caspase inhibitor ZVAD-FMK)
C#CCOC(C)C(NC(=O)C(C)NC)C(=O)N1CCCC1Cn1nnnc1Sc1ccccc1 (stereo not shown) [monomer] | do not kill at any concentration | do not kill at any concentration |  | 
CN[C@@H](C)C(=O)N[C@H](C(=O)N1CCC[C@H]1Cn1nnnc1Sc1ccccc1)C(C)OCc1cn(CCOCCOCCOCCNC(=O)c2cc3ccccc3c(-c3ccccc3Cl)n2)nn1 (stereo partly shown) [Compound 15] | kills both HeLa and T98G cells effectively | kills both HeLa and T98G cells effectively | can induce cell death | the caspase inhibitor can prevent this induction of cell death
CNC(C)C(=O)NC(C(=O)N1CCCC1Cn1nnnc1Sc1ccccc1)C(C)OCC#CC#CCOC(C)C(NC(=O)C(C)NC)C(=O)N1CCCC1Cn1nnnc1Sc1ccccc1 (stereo not shown) [dimer] | do not kill at any concentration | do not kill at any concentration |  | 
CCC(C)N(C)C(=O)c1cc2ccccc2c(-c2ccccc2Cl)n1 (stereo not shown) [PK11195] | do not kill at any concentration | do not kill at any concentration |  | 
